Assay results taken from patent US4107309A, “Substituted imidazo[1,2-d]-as-triazines” (American Cyanamid Company, priority 1977, dated 1978).

Columns and labels:
[1] = tested on: mouse skin cyclic-AMP phosphodiesterase; assay: mouse skin phosphodiesterase (PDE) inhibition test; assay type: biochemical; settings: for Mouse Skin Phosphodiesterase: test compound 10 ug./ml, active if it inhibits more than theophylline (to 50% of control at 1 mM or to 80% of control at 0.05 mM); for phosphodiesterase activity, % of control: reference level used as activity criterion
Description: The novel compounds of the present invention are active in inhibiting the enzyme cyclic-AMP phosphodiesterase which is responsible for the metabolism of cyclic adenosine monophosphate which is usually simply referred to as cyclic AMP. As such, they are useful in the treatment of psoriasis, a disease in which the epidermal cyclic AMP levels are reported to be decreased. Also as such, they are useful in the treatment of asthma, since elevated levels of cyclic AMP in most cells are reported to inhibit the release of histamine and other mediators and since elevated levels of cyclic AMP in bronchial smooth muscle are reported to cause bronchodilation. See Ann. Reports in Medicinal Chem., Vol. 10, 197 (1975).
The inhibition of phosphodiesterase is determined by the mouse skin phosphodiesterase (PDE) inhibition test as follows:
Hairless mice (Jackson Laboratories), 3-4 months old are killed by cervical dislocation and their skins removed. Epidermal slices are taken at a thickness of 0.2 mm. The slices are weighed and homogenized at 100 mg./ml. in ice-cold tris-HCl buffer (0.04M, pH 8, containing 0.005M MgCl2). Homogenates are centrifuged at 17,000 × gravity for 30 minutes. The supernatants are divided into aliquots which are stored at -20° C. Dilutions of the PDE are made with tris-HCl buffer just prior to use.
AG1-X2®, 200-400 mesh (a polystyrene anionic exchange resin 8% cross linked from Bio-Rad Lab.) is washed with 0.5N HCl, 0.5N NaOH, 0.5N HCl and repeatedly with double distilled water to pH 5. The resin is allowed to settle and 2 volumes of water are added to one volume of settled resin.
^3 H-Cyclic AMP (21 c/m mole, Schwarz-Mann Inc.) is purified by addition of 0.1 to 0.2 ml. of stock (in 50% ethanol) to 5 ml. of anion exchange resin and 0.4 ml. of tris-HCl buffer. The mixture is vortexed, centrifuged at 1200 × gravity for 5 minutes and the supernatant is discarded. The resin is washed in the same manner eight more times with two volumes of tris-HCl buffer. Resin bound ^3 H-cyclic AMP is eluted by two successive washings with 4 ml. of 0.025N HCl (resin pH = 2.0). After centrifugation, the pooled acid washes containing ^3 H-cyclic AMP are aliquoted and lyophilized. The material is stored dry at -20° C. and reconstituted with tris-HCl buffer just prior to use with a volume sufficient to give approximately 200,000 CPM/0.1 ml.
PDE activity is measured by the method of W. J. Thompson and N. N. Appleman, Biochemistry 10, 311 (1971). Assays are conducted in 12 × 75 mm. polypropylene test tubes. The reaction mixture consists of ^3 H-cyclic AMP (200,000 CPM), unlabeled cyclic AMP, PDE (100 ug. protein) and test compounds which are prepared by dissolving the compounds in methanol at a concentration of 10 mg./ml. and then dilution of tris-HCl buffer. Final concentration of the test compounds in the incubation mixture is 10 ug./ml. The total volume of the incubation mixture is increased to 0.4 ml. with tris-HCl buffer containing 3.75 millimoles of 2-mercaptoethanol. The enzyme is incubated for 10 minutes at room temperature in the presence of the test compounds or buffer prior to the addition of the mixture of ^3 H-cyclic AMP and unlabeled cyclic AMP. Reactions are run at 30° C. for 15 minutes and then terminated by immersing in acetone-dry ice until frozen, followed by boiling for 3 minutes. […]

[2] = tested on: mouse passive cutaneous anaphylaxis (IgE and IgG lesions); assay: mouse passive cutaneous anaphylaxis (PCA) test; assay type: in vivo; settings: 50 mg./kg intraperitoneally at -1 hour; active if IgE or IgG lesion area significantly smaller than control
Method: Anti-asthma activity was determined by the mouse passive cutaneous anaphylaxis (PCA) test as follows.
Female mice (Charles River Breeding Labs.), weighing 20-22 gm. are inoculated intraperitoneally at approximately three weeks of age with 0.5 ml. of Timothy pollen antigen in complete Freund's adjuvant. The sensitizing antigen is prepared by suspending 60 mg. of Timothy antigen (Phleum pratense) in 6 ml. of Freund's Complete Adjuvant (Difco Labs.). Approximately 3-5 weeks after inoculation, ascitic fluid is removed from responding mice and tested for IgE and IgG type antibody by mouse PCA as follows:
Samples of ascitic fluid are diluted 1:10 and 50 μl are injected intradermally into five mice. The mice are challenged intravenously with antigen and Evans blue dye 48 hours later. Fifteen minutes after challenge, the dorsal skin is removed and examined for blue spots. […]
At -50 hour (relative to antigen challenge at 0 hour) 50 μl of IgE is injected intradermally on the left side of a 25 gm. female mouse, posterior to the axilla at the level of the diaphragm. […] Challenge and reading are performed in serial order so that reading of the assay is essentially blind. […] The largest and smallest diameters of the lesion and a qualitative estimate of intensity of color are recorded. […] IgE and IgG lesions are analyzed independently. […]

Row | Mouse Skin Phosphodiesterase [1] | SMILES | MOUSE PCA TEST [2] | phosphodiesterase activity, % of control ([1]; 0.05 mM concentration) | phosphodiesterase activity, % of control ([1]; 1 mM concentration)
1 | Active | c1coc(CNc2nncc3nccn23)c1 [5-(Furfurylamino)-imidazo[1,2-d]-as-triazine] | – | – | –
2 | Active | CSc1nncc2nccn12 [5-(Methylthio)-imidazo[1,2-d]-as-triazine] | – | – | –
3 | – | Cn1c(=O)c2[nH]cnc2n(C)c1=O [theophylline, reference compound] | – | 80 % of control | 50 % of control

Row | SMILES | Mouse Skin Phosphodiesterase [1] | MOUSE PCA TEST [2] | phosphodiesterase activity, % of control ([1]; 0.05 mM concentration) | phosphodiesterase activity, % of control ([1]; 1 mM concentration)
4 | CN1CCN(c2nncc3nccn23)CC1 [5-(4-Methyl-1-piperazinyl)-imidazo[1,2-d]-as-triazine] | Active | Accept | – | –
